Data from ChEMBL document CHEMBL1955805, “New aromatase inhibitors from the 3-pyridyl arylether and 1-aryl pyrrolo[2,3-c]pyridine series” (Bioorg Med Chem Lett, 2012).

What was measured:
[1] = species: Homo sapiens; assay: Selectivity ratio of IC50 for CYP2C9 to IC50 for human aromatase
[2] = species: Homo sapiens; assay: Selectivity ratio of IC50 for CYP3A4 to IC50 for human aromatase
[3] = biological target: T1, Aromatase (Homo sapiens, UniProt P11511); assay: Inhibition of human aromatase coexpressed with P450 reductase by fluorimetry
T1 sequence (P11511 whole entry): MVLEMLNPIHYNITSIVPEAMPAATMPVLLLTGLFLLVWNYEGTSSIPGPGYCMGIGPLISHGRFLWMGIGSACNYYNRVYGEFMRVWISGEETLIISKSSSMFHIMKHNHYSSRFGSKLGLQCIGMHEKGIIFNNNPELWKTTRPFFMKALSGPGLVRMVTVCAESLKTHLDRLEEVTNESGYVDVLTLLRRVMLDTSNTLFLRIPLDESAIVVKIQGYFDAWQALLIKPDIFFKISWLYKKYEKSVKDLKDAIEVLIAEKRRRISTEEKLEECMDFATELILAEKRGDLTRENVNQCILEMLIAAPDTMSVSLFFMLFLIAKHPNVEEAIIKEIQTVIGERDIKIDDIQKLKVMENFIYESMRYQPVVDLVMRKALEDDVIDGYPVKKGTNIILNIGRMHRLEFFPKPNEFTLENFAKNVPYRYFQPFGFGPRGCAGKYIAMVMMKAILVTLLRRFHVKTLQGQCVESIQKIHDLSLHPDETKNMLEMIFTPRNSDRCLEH

[4] = species: Homo sapiens; assay: Selectivity ratio of IC50 for CYP2D6 to IC50 for human aromatase
[5] = biological target: T2, aromatase (CYP19) (Homo sapiens, UniProt P11511); assay: Inhibition of human aromatase coexpressed with P450 reductase at 1 uM by fluorimetry; settings: recombinant human aromatase coexpressed with P450 reductase
T2 sequence (P11511 whole entry): T1 sequence (P11511 whole entry)

IC50 [3] [nM] | inhibition at 1 µM [5] [%] | SMILES | other results
93 | 94 | N#Cc1ccc(-n2ccc3ccncc32)cc1 | Ratio IC50 [1]: > 200; Ratio IC50 [2]: > 200; Ratio IC50 [4]: > 200
 | 60 | NC(=O)c1ccc(-n2ccc3ccncc32)cc1 | 
 | 84 | COc1ccc(Oc2cc(Oc3cccnc3)ccc2C#N)cc1 | 
 | 56 | Brc1ccc(-n2ccc3ccncc32)cc1 | 
 | 26 | Ic1ccc(-n2ccc3ccncc32)cc1 | 
 | > 99 | Cc1cc(-n2ccc3ccncc32)ccc1C#N | 
523 | 85 | Clc1ccc(-n2ccc3ccncc32)cc1 | 
229 | 89 | N#Cc1ccc(Oc2cccnc2)c(Oc2cccc(Cl)c2)c1 | 
 | 15 | N#Cc1ccc(Oc2cccnc2)cc1F | 
289 | 70 | N#Cc1ccc(Oc2cccnc2)cc1 | 
 | 78 | N#Cc1ccc(Oc2cccnc2)cc1Oc1ccccc1 | 
114 | 97 | N#Cc1ccc(-n2ccc3ccncc32)cc1Oc1ccccc1 | 
59 | 96 | Cc1cc(-n2ccc3ccncc32)ccc1Cl | 
 | 25 | N#Cc1ccc(Oc2cccnc2)cc1Oc1cccc(Cl)c1 | 

The remaining lines, values behind:

SMILES | IC50 [3] [nM] | inhibition at 1 µM [5] [%] | other results
N#Cc1ccc(Oc2ccncc2)cc1 |  | 53 | 
N#Cc1ccc(Oc2cccnc2)cc1Oc1cccnc1 | 304 | 81 | 
N#Cc1ccc(Oc2cccnc2)cc1NC1CCCCC1 |  | 33 | 
CN1CCN(c2cc(Oc3cccnc3)ccc2C#N)CC1 |  | 8 | 
N#Cc1ccc(Cn2cncn2)cc1 |  | 88 | 
N#Cc1ccc(Oc2cccnc2)cc1NCc1ccccc1 | 986 | 58 | 
N#Cc1ccc(Oc2cccnc2)c(F)c1 |  | 52 | 
N#Cc1ccc(Oc2cccnc2)c(Oc2cccnc2)c1 |  | 82 | 
N#Cc1ccc(Oc2cccnn2)cc1 |  | 1 | 
N#Cc1ccc(Oc2cccnc2)cc1C#N | 5030 | 27 | 
